Reference: patent publication US20240368096A1 (Enanta Pharmaceuticals, Inc., priority 2022, published 2024)

test system: HBV; test: HBV infection in HepG2-NTCP cells (HBeAg AlphaLISA in supernatants); format: cell-based; details: Hepatitis B virus, 192 h; HBV infection of HepG2-NTCP cells; HBeAg in supernatants at day 8 post infection; read-out: Cellular EC50
Outline: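 Readout was day-8 supernatant HBeAg by AlphaLISA, with EC50 set against DMSO controls and binned A<0.1 μM, B 0.1-1 μM, C>1 μM. Compounds were added 2 h before HBV (2000 GE/cell, 4% PEG, 0.5% DMSO) to HepG2-NTCP A3 cells; from day 1 medium held 2.5% DMSO.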

Row | Compound | EC50 [nM]
1 | CN1[C@H](C2CCCCC2)CN(c2ccccc2)c2cc(Cl)c(-c3cc(NC(=O)OCC(C)(F)F)c(C(=O)O)s3)cc2S1(=O)=O [Example 244] | < 100
2 | CN1[C@H](C2CCCCC2)CN(c2ccccc2)c2cc(C3CC3)c(-c3cc(F)c(F)c(C(=O)O)c3)cc2S1(=O)=O [Example 583, (R)-5-(3-cyclohexyl-7-cyclopropyl-2-methyl-1,1-dioxido-5-phenyl-2,3,4,5-tetrahydrobenzo[f][1,2,5]thiadiazepin-8-yl)-2,3-difluorobenzoic acid] | 100 to 1000
3 | CN1[C@H](C2CCCCC2)CN(c2ccccc2)c2cc(OC[C@@H]3CCCN(C(=O)OC(C)(C)C)C3)c(-c3ccc(F)c(C(=O)O)c3)cc2S1(=O)=O [Example 369] | 100 to 1000
4 | CC(C)COC(=O)Nc1c(Cl)cc(-c2cc3c(cc2Cl)N(c2ccccc2)C[C@@H](C2CCCCC2)N(C)S3(=O)=O)cc1C(=O)O [Example 279] | < 100
5 | CN1[C@H](C2CCCCC2)CN(c2ccccc2)c2cc(OCC(F)(F)F)c(-c3ccc(NC(=O)OCc4ccccc4)c(C(=O)O)c3)cc2S1(=O)=O [Example 480] | < 100
6 | COCCN(C)c1cc2c(cc1-c1ccc(F)c(C(=O)O)c1)S(=O)(=O)N(C)[C@H](C1CCCCC1)CN2c1ccccc1 [Example 537] | 100 to 1000
7 | CN1[C@H](C2CCCCC2)CN(c2ccccc2)c2cc(Cl)c(-c3ccc(F)c(C(=O)O)n3)cc2S1(=O)=O [Example 141, (R)-6-(7-chloro-3-cyclohexyl-2-methyl-1,1-dioxido-5-phenyl-2,3,4,5-tetrahydrobenzo[f][1,2,5]thiadiazepin-8-yl)-3-fluoropicolinic acid] | 100 to 1000
8 | CN1[C@H](C2CCCCC2)CN(c2ccccc2)c2cc(Cl)c(-c3cc4c(c(C(=O)O)c3)OC(F)(F)O4)cc2S1(=O)=O [Example 154, (R)-6-(7-chloro-3-cyclohexyl-2-methyl-1,1-dioxido-5-phenyl-2,3,4,5-tetrahydrobenzo[f][1,2,5]thiadiazepin-8-yl)-2,2-difluorobenzo[d][1,3]dioxole-4-carboxylic acid] | 100 to 1000
9 | C[C@H](OC(C)(C)C)[C@@H]1CN(c2ccccc2)c2cc(Cl)c(-c3ccc(F)c(C(=O)O)c3)cc2S(=O)(=O)N1C [Example 91] | > 1000
10 | CC(C)C[C@@H]1CN(c2ccccc2)c2cc(Cl)c(-c3ccc(C#N)c(C(=O)O)c3)cc2S(=O)(=O)N1C [Example 187] | 100 to 1000
11 | CC(C)C[C@@H]1CN(c2ccccc2)c2cc(-c3cccc(NC=O)c3O)c(-c3ccc(F)c(C(=O)O)c3)cc2S(=O)(=O)N1C [Example 577] | > 1000
12 | CCCC[C@H]1CN(c2ccccc2)c2cc(Nc3ccccc3F)c(-c3cccc(C(=O)O)c3)cc2S(=O)(=O)N1C [Example 539] | > 1000
13 | CC(C)CCCOc1cc2c(cc1-c1ccc(F)c(C(=O)O)c1)S(=O)(=O)N(C)[C@H](C1CCCCC1)CN2c1ccccc1 [Example 360] | < 100
14 | CCCCC1CN(c2ccccc2)c2cc(C(F)(F)F)c(-c3ccc(F)c(C(=O)O)c3)cc2S(=O)(=O)N1C (stereo not drawn) [Example 568, 5-(3-butyl-2-methyl-1,1-dioxido-5-phenyl-7-(trifluoromethyl)-2,3,4,5-tetrahydrobenzo[f][1,2,5]thiadiazepin-8-yl)-2-fluorobenzoic acid] | 100 to 1000
15 | CSc1cc2c(cc1-c1cccc(C(=O)O)c1)S(=O)(=O)N1Cc3ccccc3C1CN2c1ccccc1 (stereo not drawn) [Example 22] | > 1000
16 | CN1[C@H](C2CCC2)CN(c2ccccc2)c2cc(Cl)c(-c3ccc(OC(F)(F)F)c(C(=O)O)c3)cc2S1(=O)=O [Example 177] | < 100
17 | CCCCCNc1cc2c(cc1-c1ccc(F)c(C(=O)O)c1)S(=O)(=O)N(C)[C@H](C1CCCCC1)CN2c1ccccc1 [Example 528] | < 100
18 | CN1[C@H](C2CCCCC2)CN(c2ccccc2)c2cc(Cl)c(-c3ccc(NC(=O)Nc4ccccc4)c(C(=O)O)c3)cc2S1(=O)=O [Example 237, (R)-5-(7-chloro-3-cyclohexyl-2-methyl-1,1-dioxido-5-phenyl-2,3,4,5-tetrahydrobenzo[f][1,2,5]thiadiazepin-8-yl)-2-(3-phenylureido)benzoic acid] | < 100
